# Measured values from ChEMBL document CHEMBL1126001, “Physical parameters for brian uptake: optimizing log P, log D and pKa of T H A” (Bioorg Med Chem Lett, 1991).
# Columns and labels:
# [1] = target: Acetylcholinesterase (Homo sapiens, UniProt P22303)
# Description: In vitro inhibition of acetylcholinesterase isolated from human erythrocytes.
# [2] = physchem
# Description: Compound was evaluated for its acid dissociation constant
# [3] = physchem; settings: buffer, pH 7.5
# Description: Lipophilic dissociation constant is determined as a measure of partitioning of neutral molecules at pH 7.5
# [4] = physchem; settings: octanol/water
# Description: Partition coefficient (logP)
# Sequence of Acetylcholinesterase (P22303 whole entry): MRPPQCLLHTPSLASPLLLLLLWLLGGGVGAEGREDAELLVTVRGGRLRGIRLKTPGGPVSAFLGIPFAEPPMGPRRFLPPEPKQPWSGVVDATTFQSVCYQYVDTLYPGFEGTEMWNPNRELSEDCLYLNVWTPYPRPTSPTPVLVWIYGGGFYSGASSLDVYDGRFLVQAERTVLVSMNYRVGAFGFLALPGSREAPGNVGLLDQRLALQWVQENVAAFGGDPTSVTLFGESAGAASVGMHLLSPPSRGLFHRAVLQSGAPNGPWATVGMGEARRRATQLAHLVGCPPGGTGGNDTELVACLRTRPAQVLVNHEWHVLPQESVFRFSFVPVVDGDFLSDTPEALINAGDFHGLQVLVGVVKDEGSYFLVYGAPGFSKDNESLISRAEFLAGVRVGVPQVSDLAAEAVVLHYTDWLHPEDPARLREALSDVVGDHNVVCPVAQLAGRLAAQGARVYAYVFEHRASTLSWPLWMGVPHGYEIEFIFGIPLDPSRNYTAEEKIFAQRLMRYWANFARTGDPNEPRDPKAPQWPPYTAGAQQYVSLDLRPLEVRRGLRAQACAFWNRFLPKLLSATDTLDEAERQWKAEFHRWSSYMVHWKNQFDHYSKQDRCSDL
SMILES,IC50 [1] [nM],pKa [2],logD [3],logP [4]
COc1cccc2nc3c(c(N)c12)CCCO3,606,8.11,,
Nc1c2c(nc3cccc(F)c13)CCCC2,78,9.1,,
Nc1c2c(nc3c1CCCO3)CCC2,1120,7.8,,
Nc1c2c(nc3cnccc13)CCCC2,2600,7.3,,
Nc1c2c(nc3ccc(Cl)cc13)CCCC2,3680,,,
Nc1c2c(nc3c1CCC3)CCCC2 [IPIDACRINE],,10.2,,
Nc1c2c(nc3c1CCCC3)CCCC2 [OCTAAMINOACRIDINE],360,11,,
Nc1c2c(nc3cccc(F)c13)OCCC2,335,6.9,,
COc1cccc2nc3c(c(N)c12)CCCC3,615,10.4,,
Nc1c2c(nc3ccccc13)OCCC2,266,7.8,1.37,1.86
Cc1cccc2nc3c(c(N)c12)CCCC3,99,9.98,,
Nc1c2c(nc3cccc(Cl)c13)OCCC2,313,6.6,,
Cc1cccc2nc3c(c(N)c12)CCCO3,150,8.06,1.63,2.28
Nc1c2c(nc3cccc(Cl)c13)CCCC2,39,9.3,,
Nc1c2c(nc3ncccc13)CCCC2,429,8.8,,
Nc1c2c(nc3c1CCCO3)CCCC2,455,7.8,,
Nc1c2c(nc3ccc(Cl)cc13)OCCC2,9810,,,
Nc1c2c(nc3cnccc13)OCCC2,42,5.6,,
Nc1c2c(nc3ncccc13)OCCC2,6260,6.4,,
